Here are results for 21 compounds from patent publication US12134611B2, “Compounds and compositions for treating conditions associated with NLRP activity” (Novartis AG, priority 2018, dated 2024).

The structures appear in SMILES notation. pIC50: −log10 of the molar value.

In the assay the target is T1, hNLRP3 (Homo sapiens, UniProt Q96P20).
T1 construct: THP-1 cells were purchased from the American Type Culture Collection; host or cells: THP-1 cells, PMA-differentiated, stimulated with gramicidin
T1 sequence (Q96P20 whole entry): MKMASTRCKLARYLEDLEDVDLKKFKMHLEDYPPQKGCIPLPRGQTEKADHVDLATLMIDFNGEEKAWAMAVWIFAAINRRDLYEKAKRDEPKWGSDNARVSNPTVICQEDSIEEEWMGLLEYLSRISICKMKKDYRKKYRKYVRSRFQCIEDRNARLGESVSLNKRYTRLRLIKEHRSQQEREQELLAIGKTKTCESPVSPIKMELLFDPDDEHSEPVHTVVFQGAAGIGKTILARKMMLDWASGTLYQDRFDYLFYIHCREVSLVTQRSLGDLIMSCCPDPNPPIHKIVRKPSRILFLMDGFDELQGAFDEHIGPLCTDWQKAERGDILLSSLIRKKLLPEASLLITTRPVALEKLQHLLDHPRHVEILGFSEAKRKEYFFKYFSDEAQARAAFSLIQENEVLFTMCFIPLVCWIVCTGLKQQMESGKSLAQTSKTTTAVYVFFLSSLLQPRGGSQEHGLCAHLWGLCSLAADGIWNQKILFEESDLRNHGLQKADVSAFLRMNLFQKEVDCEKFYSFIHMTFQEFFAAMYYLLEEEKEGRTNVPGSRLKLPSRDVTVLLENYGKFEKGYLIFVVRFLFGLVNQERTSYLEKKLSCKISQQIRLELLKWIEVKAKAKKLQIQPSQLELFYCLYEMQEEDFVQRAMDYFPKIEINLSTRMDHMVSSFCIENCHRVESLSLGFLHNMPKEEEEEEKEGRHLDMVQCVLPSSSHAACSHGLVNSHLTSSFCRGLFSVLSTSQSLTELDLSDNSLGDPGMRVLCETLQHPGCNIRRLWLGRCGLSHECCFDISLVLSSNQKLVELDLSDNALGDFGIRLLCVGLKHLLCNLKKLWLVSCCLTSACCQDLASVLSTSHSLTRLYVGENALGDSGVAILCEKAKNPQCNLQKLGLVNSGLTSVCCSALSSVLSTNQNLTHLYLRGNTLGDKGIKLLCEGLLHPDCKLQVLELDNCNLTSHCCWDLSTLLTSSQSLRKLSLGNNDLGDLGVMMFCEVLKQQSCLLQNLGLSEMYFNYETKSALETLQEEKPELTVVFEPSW
Briefly: IL-1β production in PMA-differentiated THP-1 cells stimulated with gramicidin (hTHP-1 assay). Type of assay: cell-based. The note with it: read-out: NLRP3 Antagonist, hNLRP3 (THP-1, IL-1b) Normalized: GeoMean IC50. As for the experimental part: Procedure 1: IL-1β Production in PMA-Differentiated THP-1 Cells Stimulated with Gramicidin.
THP-1 cells were purchased from the American Type Culture Collection and sub-cultured according to instructions from the supplier. […] Prior to the experiment, compounds were dissolved in dimethyl sulfoxide (DMSO) to generate a 30 mM stock. […] DMSO was backfilled in the plate to achieve a final DMSO assay concentration of 0.37%. The plate was then sealed and stored at room temperature until required.
THP-1 cells were treated with PMA (Phorbol 12-myristate 13-acetate) (20 ng/ml) for 16-18 hours. On the day of the experiment the media was removed and adherent cells were detached with trypsin for 5 minutes.
Procedure 2: IL-1β Production in PMA-Differentiated THP-1 Cells Stimulated with Gramicidin.
THP-1 cells were purchased from the American Type Culture Collection and sub-cultured according to instructions from the supplier. […] Prior to the experiment THP-1 were treated with PMA (Phorbol 12-myristate 13-acetate) (20 ng/ml) for 16-18 hours. Compounds were dissolved in dimethyl sulfoxide (DMSO) to generate a 30 mM stock. On the day of the experiment the media was removed and adherent cells were detached with trypsin for 5 minutes. […] Final DMSO concentration was at 0.37%. Cells were incubated with compounds for 1 hour and then stimulated with gramicidin (5 μM) (Enzo) for 2 hours. Plates were then centrifuged at 340 g for 5 min. Cell free supernatant (40 μL) was collected using a 96-channel PlateMaster (Gilson) and the production of IL-1β was evaluated by HTRF (cisbio).
1. Experimental procedure
1.2 Compound Preparation • Prepare the 3-fold serial dilution of the compounds with DMSO in a 384-well LDV Microplate using TECAN EVO system to generate the compound source plate with 10 concentrations. Top concentration is 30 mM. FIG. 5 depicts the layout of the microplate.
FIG. 5 depicts the layout of the plates: HC: 100 μM CRID3 (MCC950)+5 μM gramicidin LC: 5 μM Gramicidin.
1.5 IL-1β Detection • 1) Homogenize the 5× diluent #5 with a vortex and add 1 volume of stock solution in 4 volumes of distilled water. • 2) Thaw 20× stock solution of anti-IL1β-Cryptate-antibody and anti-IL1β XL-antibody. […] 2. Data Analysis: • 1.
Take `CC(C)(O)c1ccc2c(c1)S(=O)(=NC(=O)Nc1c3c(nc4c1CCC4)CCC3)NC2=O` (single isomer, unassigned) [Compound 136, (S or R)-1-(1,2,3,5,6,7-hexahydrodicyclopenta[b,e]pyridin-8-yl)-3-(6-(2-hydroxypropan-2-yl)-1-oxido-3-oxo-2,3-dihydro-1l4-benzo[d]isothiazol-1-ylidene)urea]: the pIC50 is 6.00 to 6.70.

As to `CC1(C)CS(=O)(=NC(=O)Nc2c3c(cc4c2CCC4)CCC3)NC1=O` (stereo not drawn) [Compound 102, 1-(4,4-dimethyl-1-oxido-3-oxo-1l6-isothiazolidin-1-ylidene)-3-(1,2,3,5,6,7-hexahydro-s-indacen-4-yl)urea], the pIC50 was 6.00 to 6.70.

For `O=C(N=S1(=O)CC2(COC2)C(=O)N1)Nc1c2c(cc3c1CCC3)CCC2` (single isomer, unassigned) [Compound 132b, (R or S)-1-(1,2,3,5,6,7-hexahydro-s-indacen-4-yl)-3-(6-oxido-8-oxo-2-oxa-6l6-thia-7-azaspiro[3.4]octan-6-ylidene)urea], the pIC50 was 4.52 to 5.30.

Take `CC1(C)CS(=O)(=NC(=O)Nc2c3c(cc4c2CCC4)CCC3)NC1=O` (single isomer, unassigned) [Compound 102b, (R or S)-1-(4,4-dimethyl-1-oxido-3-oxo-1l6-isothiazolidin-1-ylidene)-3-(1,2,3,5,6,7-hexahydro-s-indacen-4-yl)urea]: the negative logarithm of the IC50 (pIC50) is 4.52 to 5.30.

Regarding `CC(C)(O)c1ccc2c(c1)S(=O)(=NC(=O)Nc1c3c(cc4c1CCC4)CCC3)NC2=O` (racemic) [Compound 127, 1-(1,2,3,5,6,7-hexahydro-s-indacen-4-yl)-3-[6-(2-hydroxypropan-2-yl)-1,3-dioxo-2,3-dihydro-1-^λ-6,2-benzothiazol-1-ylidene]urea], the pIC50 is 6.00 to 6.70.

As to `O=C(N=S1(=O)NC(=O)c2ccc(Br)cc21)Nc1c2c(cc3c1CCC3)CCC2` (stereo not drawn) [Compound 103, 1-(6-bromo-1-oxido-3-oxo-2,3-dihydro-1l4-benzo[d]isothiazol-1-ylidene)-3-(1,2,3,5,6,7-hexahydro-s-indacen-4-yl)urea], the pIC50 is 5.30 to 6.00.

Take `CC(C)(O)c1ccc2c(c1)S(=O)(=NC(=O)Nc1c3c(cc4c1CC4)CCC3)NC2=O` (stereo not drawn) [Compound 112, 1-(6-(2-hydroxypropan-2-yl)-1-oxido-3-oxo-2,3-dihydro-1l4-benzo[d]isothiazol-1-ylidene)-3-(2,4,5,6-tetrahydro-1H-cyclobuta[f]inden-3-yl)urea]: the pIC50 was 6.00 to 6.70.

As to `CC(C)(O)c1ccc2c(c1)S(=O)(=NC(=O)Nc1c3c(cc4c1CCC4)CCC3)NC2` (stereo not drawn) [Compound 126, 1-(1,2,3,5,6,7-hexahydro-s-indacen-4-yl)-3-[6-(2-hydroxypropan-2-yl)-1-oxo-2,3-dihydro-1-^λ-6,2-benzothiazol-1-ylidene]urea], the pIC50 is less than 4.52.

For `O=C(N=S1(=O)NC(=O)c2cccnc21)Nc1c2c(cc3c1CCC3)CCC2` (stereo not drawn) [Compound 223, 1-(1,2,3,5,6,7-hexahydro-s-indacen-4-yl)-3-(1-oxido-3-oxo-2,3-dihydro-1l4-isothiazolo[5,4-b]pyridin-1-ylidene)urea], the pIC50 was 4.52 to 5.30.

Turning to `CN(C)Cc1ccc2c(c1)S(=O)(=NC(=O)Nc1c3c(cc4c1CCC4)CCC3)NC2` (single isomer, unassigned) [Compound 133a, (R or S)-1-(6-((dimethylamino)methyl)-1-oxido-2,3-dihydro-1l4-benzo[d]isothiazol-1-ylidene)-3-(1,2,3,5,6,7-hexahydro-s-indacen-4-yl)urea], the pIC50 was 4.52 to 5.30.

With `CNC(=O)c1ccc2c(c1)S(=O)(=NC(=O)Nc1c3c(cc4c1CCC4)CCC3)NC2=O` (stereo not drawn) [Compound 213, 1-(((1,2,3,5,6,7-hexahydro-s-indacen-4-yl)carbamoyl)imino)-N-methyl-3-oxo-2,3-dihydro-1H-1l4-benzo[d]isothiazole-6-carboxamide 1-oxide], the pIC50 was 5.30 to 6.00.

`O=C(N=S1(=O)NC(=O)c2ccccc21)Nc1c2c(cc3c1CCC3)CCC2` (single isomer, unassigned) [Compound 129a, 3-[(1R or 1S)-1,3-dioxo-2,3-dihydro-1-^λ-6,2-benzothiazol-1-ylidene]-1-(1,2,3,5,6,7-hexahydro-s-indacen-4-yl)urea]: the pIC50 was 6.00 to 6.70.

For the compound `CC(C)c1cc2c(c(C(C)C)c1CC(=O)N=S1(=O)NC(=O)c3ccc(C(C)(C)O)cc31)COC2` (stereo not drawn) [Compound 104, 2-(4,6-diisopropyl-1,3-dihydroisobenzofuran-5-yl)-N-(6-(2-hydroxypropan-2-yl)-1-oxido-3-oxo-2,3-dihydro-1l4-benzo[d]isothiazol-1-ylidene)acetamide], the pIC50 was less than 4.52.

On to `O=C(N=S1(=O)CCCN1)Nc1c2c(cc3c1CCC3)CCC2` (stereo not drawn) [Compound 119, 1-(1,2,3,5,6,7-hexahydro-s-indacen-4-yl)-3-(1-oxido-1l6-isothiazolidin-1-ylidene)urea], for which the pIC50 was 4.52 to 5.30.

For the compound `CN(C)Cc1ccc2c(c1)S(=O)(=NC(=O)Nc1c3c(cc4c1CCC4)CCC3)NC2=O` (stereo not drawn) [Compound 110, 1-(6-((dimethylamino)methyl)-1-oxido-3-oxo-2,3-dihydro-1l4-benzo[d]isothiazol-1-ylidene)-3-(1,2,3,5,6,7-hexahydro-s-indacen-4-yl)urea], the pIC50 was 5.30 to 6.00.

For `CC(C)(O)c1ccc2c(c1)C(=O)NS2(=O)=NC(=O)Nc1c2c(cc3c1CCC3)CCC2` (stereo not drawn) [Compound 121, 1-(1,2,3,5,6,7-hexahydro-s-indacen-4-yl)-3-(5-(2-hydroxypropan-2-yl)-1-oxido-3-oxo-2,3-dihydro-1l4-benzo[d]isothiazol-1-ylidene)urea], the pIC50 is 6.00 to 6.70.

With `COC(=O)c1ccc2c(c1)S(=O)(=NC(=O)Nc1c3c(cc4c1CCC4)CCC3)NC2=O` (single isomer, unassigned) [Compound 134b, methyl (S or R)-1-(((1,2,3,5,6,7-hexahydro-s-indacen-4-yl)carbamoyl)imino)-3-oxo-2,3-dihydro-1H-1l4-benzo[d]isothiazole-6-carboxylate 1-oxide], the pIC50 is 4.52 to 5.30.

As to `CN1Cc2ccccc2S1(=O)=NC(=O)Nc1c2c(cc3c1CCC3)CCC2` (stereo not drawn) [Compound 107], the negative-log IC50 (pIC50) was less than 4.52.

As for `CC(O)(CO)c1ccc2c(c1)S(=O)(=NC(=O)Nc1c3c(cc4c1CCC4)CCC3)NC2=O` (single isomer, unassigned) [Compound 208a, 1-((1R or S)-6-(1,2-dihydroxypropan-2-yl)-1-oxido-3-oxo-2,3-dihydro-1l4-benzo[d]isothiazol-1-ylidene)-3-(1,2,3,5,6,7-hexahydro-s-indacen-4-yl)urea], the pIC50 is 5.30 to 6.00.

`COCc1ccc2c(c1)S(=O)(=NC(=O)Nc1c3c(cc4c1CCC4)CCC3)NC2=O` (stereo not drawn) [Compound 217, 1-(1,2,3,5,6,7-hexahydro-s-indacen-4-yl)-3-(6-(methoxymethyl)-1-oxido-3-oxo-2,3-dihydro-1l4-benzo[d]isothiazol-1-ylidene)urea]: the pIC50 is 6.00 to 6.70.

Regarding `O=C(N=S1(=O)CC2(COC2)C(=O)N1)Nc1c2c(cc3c1CCC3)CCC2` (single isomer, unassigned) [Compound 132a, (S or R)-1-(1,2,3,5,6,7-hexahydro-s-indaccn-4-yl)-3-(6-oxido-8-oxo-2-oxa-6l6-thia-7-azaspiro[3.4]octan-6-ylidene)urea], the pIC50 is 5.30 to 6.00.

A word on the pIC50: it is the IC50 on a negative log10 scale, so that one unit is a factor of ten.
